Measurements reported in US7608630B2, “Marasmius androsaceus L.es Fr extract, piperidone derivative, and their use for the preparation of hypertensives” (Hainan Yangpu New Special Pharmaceutical Co., Ltd., priority 2004, dated 2009).
Several values for one entry are separate records, joined by “and”; a condition that tells them apart may be missing. Equal entries are not always repeated.

Experiments:
[1] = tested on: aorta smooth muscle of rabbit; assay: Effects on aorta of rabbit (contraction of isolated aorta section caused by adrenalin); set-up: species or system New Zealand rabbit
Experimental: A New Zealand rabbit was beheaded and unconscious. After thoracotomy, its thoracic aorta was quickly taken out, and quickly placed in and flushed with a pre-cooled LOCK's solution (which comprised of 1000 ml water, 9 g NaCl, 0.35 g KCl, 0.35 g MgSO4.7H2O, 0.16 g KH2PO4, and 1 g NaHCO3) to remove bloodiness. The connective tissue outside the blood vessel was carefully cut off, and an aorta section of 2-3 mm wide at an angle of 45° relative to the vessel was taken for use in the following test.
The aorta section of 2 cm long was clamped at its both ends with frog heart clips, and put in a thermostatic perfusion tank of 38° C. with the lower end being fixed at the bottom of the tank and the top end being connected by a thread to a tensile transducer of a two-way electrophysiolograph. Oxygen was bubbled to the solution in the perfusion tank, and the contraction force of the aorta section was recorded after balancing it in the solution for 80 min. During which, the LOCK's solution was changed once per 20 min. After adding 1.2×10^−6 mg/ml adrenalin to the solution, the contraction curve of the aorta section was recorded.

[2] = tested on: blood pressure of SHR rat; assay: Reduction of blood pressure of anesthetized SHR rat; assay type: in vivo, spontaneously hypertensive rat (SHR); conditions: SHR rat; for Diastolic pressure / Systolic pressure: 10 mg/kg intravenous; for reduction of systolic pressure and diastolic pressure: dosage range 10-200 mg/kg, intravenous
Experimental: (§1) A spontaneously hypertensive rat (SHR) was anesthetized with 40 mg/ml pentobarbital, and fixed by its back on an experimental stand. The skin at its neck was cut open after removing hair, and thereafter the right common carotid artery was separated with its proximal end being clamped by a artery clamp and its axifugal end being ligated by a thread. A V-shape cut was made with scissors at the axifugal end, into which an arterial cannula filled with heparin physiological saline was inserted. The arterial cannula was connected with a blood pressure transducer, and then the blood pressure transducer was connected to a computer-controlled three-way physiological-pharmacological recorder. The right femoral vein of the rat was separated and intubated for the injection of a drug. When the blood pressure became stable (i.e., the blood pressure contraction curve became straight), the rat was administered by intravenous route.

[3] = tested on: ileum smooth muscle of guinea pig; assay: Effects on ileum smooth muscle of guinea pig (automatic rhythmic contraction of isolated ileum section)
Experimental: The section was clamped at its both ends with frog heart clips, and placed in a perfusion tank with the lower end being fixed at the bottom of the tank and the top end being connected by a thread to a tensile transducer of a two-way electrophysiolograph, so that the automatic rhythmic contraction of the ileum section was recorded. The Tai's nutrient solution in the tank was kept at a temperature of 35° C., into which pure […] was bubbled. […] The normal contraction curve of the ileum section was firstly recorded using isoprenaline as a positive control.

blood pressure of cats = assay: Reduction of blood pressure of cat; assay type: in vivo; conditions: cats, 10 mg/kg o.s; for Diastolic pressure, Animal 1-4 individually / Systolic pressure, Animal 1-4 individually / Systolic pressure, Animal 3-4 individually: 10 mg/kg
Experimental: as §1
Five cats of 2.5-3.2 kg were administered orally and intravenously respectively according to the method in Example 8, and then their systolic pressure and diastolic pressure were determined using normal cats non-administered as a control group.

[4] = 10 min after administration (Table 9)
[5] = 20 min after administration (Table 9)
[6] = 30 min after administration (Table 9)
[7] = 40 min after administration (Table 9)
[8] = 50 min after administration (Table 9)
[9] = 60 min after administration (Table 9)
[10] = 90 min after administration (Table 9)
[11] = 120 min after administration (Table 9)
[12] = 150 min after administration (Table 9)
[13] = 180 min after administration (Table 9)
[14] = before administration (Table 9)

SMILES: CCN1CC(C)(C)C(=O)C(C)(C)C1 [Compound of formula Ia, 1-ethyl-3,3,5,5-tetramethyl-4-piperidone]
- Time of taking effect ([1]; concentration 1 × 10^−4 mg/ml): 3 min
- Contraction force ([1]; concentration 1 × 10^−4 mg/ml, 10 min, then adrenalin 1.2×10^−6 mg/ml, relative to original value): 0.3
- reduction of the contraction of aorta section caused by adrenalin ([1]; concentration range 5×10^−3-1×10^−4 mg/ml): could obviously reduce the contraction of aorta section caused by adrenalin
- contraction force resumed by adrenalin, fraction of the original value ([1]; sample 10 min, then adrenalin 1.2×10^−6 mg/ml, stated for the three samples together): ½-⅓

SMILES: CC1(C)CNCC(C)(C)C1=O.Cl [3,3,5,5-tetramethyl-4-piperidone hydrochloride]
- Diastolic pressure ([2]; 5 min after administration): 109 ± 13 mm/Hg
- Systolic pressure ([2]; 5 min after administration): 139 ± 19 mm/Hg
- Diastolic pressure ([2]; 60 min after administration): 89 ± 12 mm/Hg
- Systolic pressure ([2]; 60 min after administration): 123 ± 11 mm/Hg
- Diastolic pressure ([2]; 120 min after administration): 80 ± 23 mm/Hg
- Systolic pressure ([2]; 120 min after administration): 129 ± 17 mm/Hg
- Diastolic pressure ([2]; 240 min after administration): 112 ± 16 mm/Hg
- Systolic pressure ([2]; 240 min after administration): 169 ± 14 mm/Hg
- Diastolic pressure ([2]; before administration): 119 ± 15 mm/Hg
- Systolic pressure ([2]; before administration): 170 ± 9.3 mm/Hg
- reduction of systolic pressure and diastolic pressure [2]: could obviously reduce the systolic pressure and diastolic pressure of SHR rat

SMILES: CC1(C)CNCC(C)(C)C1O [Compound of formula Ib, 3,3,5,5-tetramethyl-4-piperidanol]
- Relaxation Time ([3]; concentration 1 × 10^−4 mg/ml): 5 h
- Time of taking effect ([3]; concentration 1 × 10^−4 mg/ml): 3 min
- inhibition of the automatic rhythmic contraction of the ileum section ([3]; different concentrations): could inhibit the automatic rhythmic contraction of the ileum section
- Average Diastolic pressure (blood pressure of cats; [4]): 106.75 mmHg
- Average Systolic pressure (blood pressure of cats; [4]): 141.75 mmHg
- Diastolic pressure, Animal 1-4 individually (blood pressure of cats; [4]): 119 mmHg and 105 mmHg and 100 mmHg and 103 mmHg
- Systolic pressure, Animal 1-4 individually (blood pressure of cats; [4]): 136 mmHg and 139 mmHg and 145 mmHg and 147 mmHg
- Average Diastolic pressure (blood pressure of cats; [5]): 104.25 mmHg
- Average Systolic pressure (blood pressure of cats; [5]): 140 mmHg
- Diastolic pressure, Animal 1-4 individually (blood pressure of cats; [5]): 135 mmHg and 89 mmHg (2×) and 104 mmHg
- Systolic pressure, Animal 1-4 individually (blood pressure of cats; [5]): 146 mmHg and 125 mmHg and 153 mmHg and 136 mmHg
- Average Diastolic pressure (blood pressure of cats; [6]): 104.75 mmHg
- Average Systolic pressure (blood pressure of cats; [6]): 140.5 mmHg
- Diastolic pressure, Animal 1-4 individually (blood pressure of cats; [6]): 130 mmHg and 90 mmHg (2×) and 109 mmHg
- Systolic pressure, Animal 1-4 individually (blood pressure of cats; [6]): 146 mmHg and 126 mmHg and 154 mmHg and 136 mmHg
- Average Diastolic pressure (blood pressure of cats; [7]): 102.25 mmHg
- Average Systolic pressure (blood pressure of cats; [7]): 139 mmHg
- Diastolic pressure, Animal 1-4 individually (blood pressure of cats; [7]): 126 mmHg and 91 mmHg and 102 mmHg and 90 mmHg
- Systolic pressure, Animal 1-4 individually (blood pressure of cats; [7]): 140 mmHg and 126 mmHg and 154 mmHg and 136 mmHg
- Average Diastolic pressure (blood pressure of cats; [8]): 103 mmHg
- Average Systolic pressure (blood pressure of cats; [8]): 136.5 mmHg
- Diastolic pressure, Animal 1-4 individually (blood pressure of cats; [8]): 126 mmHg and 96 mmHg and 103 mmHg and 87 mmHg
- Systolic pressure, Animal 1-4 individually (blood pressure of cats; [8]): 136 mmHg and 130 mmHg (2×) and 150 mmHg
- Average Diastolic pressure (blood pressure of cats; [9]): 109 mmHg
- Average Systolic pressure (blood pressure of cats; [9]): 138 mmHg
- Diastolic pressure, Animal 1-4 individually (blood pressure of cats; [9]): 123 mmHg and 97 mmHg and 102 mmHg and 114 mmHg
- Systolic pressure, Animal 1-4 individually (blood pressure of cats; [9]): 140 mmHg and 122 mmHg and 152 mmHg and 138 mmHg
- Average Diastolic pressure (blood pressure of cats; [10]): 109.25 mmHg
- Average Systolic pressure (blood pressure of cats; [10]): 141.75 mmHg
- Diastolic pressure, Animal 1-4 individually (blood pressure of cats; [10]): 125 mmHg and 95 mmHg and 110 mmHg and 107 mmHg
- Systolic pressure, Animal 1-4 individually (blood pressure of cats; [10]): 135 mmHg and 130 mmHg and 156 mmHg and 146 mmHg
- Average Diastolic pressure (blood pressure of cats; [11]): 116.75 mmHg
- Average Systolic pressure (blood pressure of cats; [11]): 151.5 mmHg
- Diastolic pressure, Animal 1-4 individually (blood pressure of cats; [11]): 131 mmHg and 94 mmHg and 115 mmHg and 127 mmHg
- Systolic pressure, Animal 1-4 individually (blood pressure of cats; [11]): 146 mmHg and 131 mmHg and 165 mmHg and 164 mmHg
- Average Diastolic pressure (blood pressure of cats; [12]): 116.75 mmHg
- Average Systolic pressure (blood pressure of cats; [12]): 155.25 mmHg
- Diastolic pressure, Animal 1-4 individually (blood pressure of cats; [12]): 132 mmHg and 98 mmHg and 117 mmHg and 120 mmHg
- Systolic pressure, Animal 1-4 individually (blood pressure of cats; [12]): 145 mmHg and 139 mmHg and 166 mmHg and 171 mmHg
- Average Diastolic pressure (blood pressure of cats; [13]): 118.5 mmHg
- Average Systolic pressure (blood pressure of cats; [13]): 158.5 mmHg
- Diastolic pressure, Animal 1-4 individually (blood pressure of cats; [13]): 133 mmHg and 97 mmHg and 113 mmHg and 131 mmHg
- Systolic pressure, Animal 1-4 individually (blood pressure of cats; [13]): 152 mmHg and 142 mmHg and 160 mmHg and 180 mmHg
- Systolic pressure, Animal 3-4 individually (blood pressure of cats; 210 min after administration (Table 9)): 156 mmHg and 186 mmHg
- Average Systolic pressure (blood pressure of cats; 210 min after administration (Table 9; two animals)): 171 mmHg
- Systolic pressure, Animal 3-4 individually (blood pressure of cats; 240 min after administration (Table 9)): 155 mmHg and 202 mmHg
- Average Systolic pressure (blood pressure of cats; 240 min after administration (Table 9; two animals)): 178.5 mmHg
- Average Diastolic pressure (blood pressure of cats; [14]): 140 mmHg
- Average Systolic pressure (blood pressure of cats; [14]): 195.25 mmHg
- Diastolic pressure, Animal 1-4 individually (blood pressure of cats; [14]): 134 mmHg and 156 mmHg and 116 mmHg and 154 mmHg
- Systolic pressure, Animal 1-4 individually (blood pressure of cats; [14]): 150 mmHg and 209 mmHg and 185 mmHg and 237 mmHg
- Systolic pressure ([2]; 5 min after administration): 140 ± 19 mm/Hg
- Diastolic pressure ([2]; 60 min after administration): 88 ± 10 mm/Hg
- Systolic pressure ([2]; 60 min after administration): 121 ± 15 mm/Hg
- Diastolic pressure ([2]; 120 min after administration): 89 ± 8.9 mm/Hg
- Systolic pressure ([2]; 120 min after administration): 126 ± 16 mm/Hg
- Diastolic pressure ([2]; 240 min after administration): 107 ± 9.2 mm/Hg
- Systolic pressure ([2]; 240 min after administration): 162 ± 11 mm/Hg
- Diastolic pressure ([2]; before administration): 125 ± 17 mm/Hg
- Systolic pressure ([2]; before administration): 178 ± 13 mm/Hg
- reduction of systolic pressure and diastolic pressure [2]: could obviously reduce the systolic pressure and diastolic pressure of SHR rat

SMILES: CC(C)NCC(O)c1ccc(O)c(O)c1 (stereo not drawn) [Isoprenaline, reference compound]
- Relaxation Time ([3]; concentration 5 × 10^−5 mg/ml): 0.3 h
- Time of taking effect ([3]; concentration 5 × 10^−5 mg/ml): 16 min
- time after flushing at which the inhibited contraction is resumed ([3]; concentration 5×10^−5 mg/ml, control): 20 min
- Time of taking effect ([1]; concentration 1.2 × 10^−6 mg/ml): 16 min
- Contraction force ([1]; concentration 1.2 × 10^−6 mg/ml, relative to original adrenalin contraction): 1
